Measurements: patent US20070117864A1, “Composition for preventing and treating hepatoma” (Tokyo University of Agr. & Tech. TLO Co., Ltd., priority 2003, published 2007)

Experiment: serum lipid peroxide levels (TBARS) in hepatoma-bearing rats
Format: in vivo, rat
Settings: mean ± SEM of 11 rats
Procedure: Male Donryu rats of four weeks old were purchased from NRC Haruna, Gumma, Japan, and were preliminarily fed for 6 days in quintuple cages in a room with a controlled environment with light period of 8:00 to 20:00, room temperature of 22±1° C., and relative humidity of 60±5%. For the first 3 days, the animals were fed ad libitum with a stock pellet diet (CE-2; CLEA Japan, Tokyo), and for the next 3 days, they were fed a basal diet containing 20% milk casein (20C) (Table 1) ad libitum together with tap water in a glass container. Following the completion of this preparatory raising, the rats were divided into three groups (11 animals per group) with equal average body weights of the respective groups were equal, and 1.0×10^7 of AH109A cells suspended in PBS (−) were transplanted in the back of all the rats. From the time immediately after transplantation, in the respective experimental groups, the animals were fed the experimental diets shown in Table 2. During the experimental period, the body weight, food intake and solid tumor size (sum of length, width and height) were measured everyday. […] LPO levels were determined by measuring thiobarbituric acid-reactive substances (TBARS) by the Yagi fluorescence method using a lipid peroxide test Wako (Wako Pure Chemical Industries).

## O=C1OCC(Cc2cccc(O)c2)C1Cc1cccc(O)c1 (centres unmarked) [Enterolactone, enterolactone]
Diet 10 ppm
  Serum TBARS: 7.31 ± 0.37 nmol/mL
Diet 100 ppm
  Serum TBARS: 6.87 ± 0.51 nmol/mL
